Assay results taken from patent publication US9221809B2 (MERCK SHARP & DOHME CORP., priority 2011, dated 2015).
Counter-ions that a name gives are not always drawn.

Each compound was assayed against IRAK4 (Homo sapiens (Human), UniProt Q9NWZ3) (assay: IRAK4 kinase activity, IMAP fluorescence polarization assay). Conditions: 100 μM ATP, 0.5 nM GST tagged IRAK4; read-out: IRAK4 IC50.
Assay type: biochemical
Protocol: The kinase activity of IRAK4 is determined by its ability to catalyze the phosphorylation of a fluorescent polypeptide substrate. The extent of phosphorylation is measured using IMAP technology (Molecular Devices) where the phosphorylated fluorescent substrate binds to the large M(III)-based nanoparticles which reduces the rotational speed of the substrate and thus increases its fluorescent polarization (FP).
Assay Procedure: A 20 μl reaction mixture contains 10 mM TriHCl, pH 7.2, 0.5 nM GST tagged IRAK4 (SignalChem), 100 nM fluorescent peptide substrate (RP7030, Molecular Devices), 100 μM ATP, 1 mM DTT, 1 mM MgCl2, and 0.01% Tween 20. The reaction is initiated by the addition of ATP. After incubation for 30 minutes at 25° C., 60 μl of Progressive IMAP Reagent (Molecular Devices) is added to stop the reaction. Change in RP7030's FP is determined by a FP reader (Analyst HT, LJL BioSystems)

Sequence of IRAK4 (Q9NWZ3 whole entry): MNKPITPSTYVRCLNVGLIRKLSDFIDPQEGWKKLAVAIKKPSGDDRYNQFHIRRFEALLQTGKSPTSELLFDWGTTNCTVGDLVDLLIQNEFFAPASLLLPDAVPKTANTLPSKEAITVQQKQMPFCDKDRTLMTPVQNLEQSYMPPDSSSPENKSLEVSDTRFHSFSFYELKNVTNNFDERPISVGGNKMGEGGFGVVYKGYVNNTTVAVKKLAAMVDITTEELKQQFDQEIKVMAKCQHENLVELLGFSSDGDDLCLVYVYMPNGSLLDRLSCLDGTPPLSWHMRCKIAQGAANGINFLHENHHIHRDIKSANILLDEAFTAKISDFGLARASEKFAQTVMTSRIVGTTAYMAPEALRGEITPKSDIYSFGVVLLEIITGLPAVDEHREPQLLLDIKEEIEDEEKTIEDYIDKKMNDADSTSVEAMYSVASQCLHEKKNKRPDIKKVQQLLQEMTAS

IC50	Compound
38 nM	C[C@@H]1CC[C@@H](Nc2nc(N3CCOCC3)[nH]c(=O)c2-c2ccc3ccccc3n2)CN1 (racemic) [Example 121, 6-(methylpiperidin-3-yl)amino-2-morpholino-5-(quinolin-2-yl)pyrimidin-4(3H)-one.HCl]
541 nM	C[C@H]1CC[C@@H](Nc2nc(N3CCOCC3)[nH]c(=O)c2-c2ccc3ccccc3n2)CN1 (racemic) [Example 122, 6-(methylpiperidin-3-yl)amino-2-morpholino-5-(quinolin-2-yl)pyrimidin-4(3H)-one.HCl]
847 nM	C[C@H]1CC[C@@H](Nc2nc(N3CCOCC3)[nH]c(=O)c2-c2nc3ccccc3s2)CN1 (racemic) [Example 123, 5-(benzo[d]thiazol-2-yl)-6((6-methylpiperidin-3-yl)amino)-2-morpholinopyrimidin-4(3H)-one.HCl]
114 nM	C[C@@H]1CC[C@@H](Nc2nc(N3CCOCC3)[nH]c(=O)c2-c2nc3ccccc3s2)CN1 (racemic) [Example 124, 5-(benzo[d]thiazol-2-yl)-6((6-methylpiperidin-3-yl)amino)-2-morpholinopyrimidin-4(3H)-one.HCl]
5400 nM	N[C@@H]1CCCC[C@H]1Nc1cccc2sc(-c3c(N[C@@H]4CCCNC4)nc(N4CCOCC4)[nH]c3=O)nc12 (racemic) [Example 352, 5-(4-[[(trans, rac)-2-aminocyclohexyl]amino]-1,3-benzothiazol-2-yl)-2-(morpholin-4-yl)-6-[[(3R)-piperidin-3-yl]amino]-3,4-dihydropyrimidin-4-one]
24 nM	N[C@H]1CCCC[C@H]1Nc1cccc2sc(-c3c(N[C@@H]4CCCNC4)nc(N4CCOCC4)[nH]c3=O)nc12 (racemic) [Example 353, 5-[4-[(cis, rac)-(2-aminocyclohexyl)amino]-1,3-benzothiazol-2-yl]-2-(morpholin-4-yl)-6-[[(3R)-piperidin-3-yl]amino]-3,4-dihydropyrimidin-4-one]
20 nM	O=c1[nH]c(NC2CCC2)nc(N[C@@H]2C[C@H](CO)[C@@H](O)[C@H]2O)c1-c1nc2ccccc2s1 [Example 1, 5-(Benzo[d]thiazol-2-yl)-2-(cyclobutylamino)-6-((1R,2S,3R,4R)-2,3-dihydroxy-4-(hydroxymethyl)cyclopentylamino)pyrimidin-4(3H)-one.HCl]
694 nM	Nc1nc(N[C@@H]2C[C@H](CO)[C@@H](O)[C@H]2O)c(-c2nc3ccccc3s2)c(=O)[nH]1 [Example 2, 2-Amino-5-(benzo[d]thiazol-2-yl)-6-((1R,2S,3R,4R)-2,3-dihydroxy-4-(hydroxymethyl)cyclopentylamino)pyrimidin-4(3H)-one.HCl]
92 nM	O=c1[nH]c(NC2CCCC2)nc(N[C@@H]2C[C@H](CO)[C@@H](O)[C@H]2O)c1-c1nc2ccccc2s1 [Example 4, 5-(Benzo[d]thiazol-2-yl)-2-(cyclopentylamino)-6-((1R,2S,3R,4R)-2,3-dihydroxy-4-(hydroxymethyl)cyclopentylamino)pyrimidin-4(3H)-one.HCl]
151 nM	CC(C)Nc1nc(N[C@@H]2C[C@H](CO)[C@@H](O)[C@H]2O)c(-c2nc3ccccc3s2)c(=O)[nH]1 [Example 5, 5-(Benzo[d]thiazol-2-yl)-6-((1R,2S,3R,4R)-2,3-dihydroxy-4-(hydroxymethyl)cyclopentylamino)-2-(isopropylamino)pyrimidin-4(3H)-one.HCl]
636 nM	O=c1[nH]c(NC2CCCCC2)nc(N[C@@H]2C[C@H](CO)[C@@H](O)[C@H]2O)c1-c1nc2ccccc2s1 [Example 6, 5-(Benzo[d]thiazol-2-yl)-2-(cyclohexylamino)-6-((1R,2S,3R,4R)-2,3-dihydroxy-4-(hydroxymethyl)cyclopentylamino)pyrimidin-4(3H)-one.HCl]
1490 nM	O=c1[nH]c(N[C@@H]2C[C@H](CO)[C@@H](O)[C@H]2O)c(-c2nc3ccccc3s2)c(=O)[nH]1 [Example 7, 5-(Benzo[d]thiazol-2-yl)-6-((1R,2S,3R,4R)-2,3-dihydroxy-4-(hydroxymethyl)cyclopentylamino)pyrimidine-2,4(1H,3H)-dione.HCl]
575 nM	O=c1[nH]c(NC2CCOCC2)nc(N[C@@H]2C[C@H](CO)[C@@H](O)[C@H]2O)c1-c1nc2ccccc2s1 [Example 8, 5-(Benzo[d]thiazol-2-yl)-6-((1R,2S,3R,4R)-2,3-dihydroxy-4-(hydroxymethyl)cyclopentylamino)-2-(tetrahydro-2H-pyran-4-ylamino)pyrimidin-4(3H)-one.HCl]
324 nM	O=c1[nH]c(NC2CC(F)(F)C2)nc(N[C@@H]2C[C@H](CO)[C@@H](O)[C@H]2O)c1-c1nc2ccccc2s1 [Example 9, 5-(Benzo[d]thiazol-2-yl)-2-(3,3-difluorocyclobutylamino)-6-((1R,2S,3R,4R)-2,3-dihydroxy-4-(hydroxymethyl)cyclopentylamino)pyrimidin-4(3H)-one.HCl]
545 nM	CS(=O)(=O)N1CCC(Nc2nc(N[C@@H]3C[C@H](CO)[C@@H](O)[C@H]3O)c(-c3nc4ccccc4s3)c(=O)[nH]2)CC1 [Example 10, 5-(Benzo[d]thiazol-2-yl)-6-((1R,2S,3R,4R)-2,3-dihydroxy-4-(hydroxymethyl)cyclopentylamino)-2-(1-(methylsulfonyl)piperidin-4-ylamino)pyrimidin-4(3H)-one.HCl]
892 nM	O=c1[nH]c(NC2COC2)nc(N[C@@H]2C[C@H](CO)[C@@H](O)[C@H]2O)c1-c1nc2ccccc2s1 [Example 11, 5-(Benzo[d]thiazol-2-yl)-6-((1R,2S,3R,4R)-2,3-dihydroxy-4-(hydroxymethyl)cyclopentylamino)-2-(oxetan-3-ylamino)pyrimidin-4(3H)-one.HCl]
25 nM	CS(=O)(=O)N1CCN(c2nc(N[C@@H]3C[C@H](CO)[C@@H](O)[C@H]3O)c(-c3nc4ccccc4s3)c(=O)[nH]2)CC1 [Example 12, 5-(Benzo[d]thiazol-2-yl)-6-((1R,2S,3R,4R)-2,3-dihydroxy-4-(hydroxymethyl)cyclopentylamino)-2-(4-(methylsulfonyl)piperazin-1-yl)pyrimidin-4(3H)-one.HCl]
8.9 nM	O=c1[nH]c(N2CC3(COC3)C2)nc(N[C@@H]2C[C@H](CO)[C@@H](O)[C@H]2O)c1-c1nc2ccccc2s1 [Example 13, 5-(Benzo[d]thiazol-2-yl)-6-((1R,2S,3R,4R)-2,3-dihydroxy-4-(hydroxymethyl)cyclopentylamino)-2-(2-oxa-6-azaspiro[3.3]heptan-6-yl)pyrimidin-4(3H)-one.HCl]
5.6 nM	CS(=O)(=O)N1CC2(CN(c3nc(N[C@@H]4C[C@H](CO)[C@@H](O)[C@H]4O)c(-c4nc5ccccc5s4)c(=O)[nH]3)C2)C1 [Example 14, 5-(Benzo[d]thiazol-2-yl)-6-((1R,2S,3R,4R)-2,3-dihydroxy-4-(hydroxymethyl)cyclopentylamino)-2-(6-(methylsulfonyl)-2,6-diazaspiro[3.3]heptan-2-yl)pyrimidin-4(3H)-one.HCl]
6.5 nM	O=c1[nH]c(N2CC3(CNC3)C2)nc(N[C@@H]2C[C@H](CO)[C@@H](O)[C@H]2O)c1-c1nc2ccccc2s1 [Example 16, 5-(Benzo[d]thiazol-2-yl)-6-((1R,2S,3R,4R)-2,3-dihydroxy-4-(hydroxymethyl)cyclopentylamino)-2-(2,6-diazaspiro[3.3]heptan-2-yl)pyrimidin-4(3H)-one.HCl]
9.5 nM	O=c1[nH]c(N2CCOCC2)nc(N[C@@H]2C[C@H](CO)[C@@H](O)[C@H]2O)c1-c1ccc2ccccc2n1 [Example 18, 6-((1R,2S,3R,4R)-2,3-Dihydroxy-4-(hydroxymethyl)cyclopentylamino)-2-morpholino-5-(quinolin-2-yl)pyrimidin-4(3H)-one.HCl]
23 nM	O=c1[nH]c(N2CCCCC2)nc(N[C@@H]2C[C@H](CO)[C@@H](O)[C@H]2O)c1-c1ccc2ccccc2n1 [Example 19, 6-((1R,2S,3R,4R)-2,3-Dihydroxy-4-(hydroxymethyl)cyclopentylamino)-2-(piperidin-1-yl)-5-(quinolin-2-yl)pyrimidin-4(3H)-one.HCl]
19 nM	O=c1[nH]c(NC2CCC2)nc(N[C@@H]2C[C@H](CO)[C@@H](O)[C@H]2O)c1-c1ccc2ccccc2n1 [Example 20, 2-(Cyclobutylamino)-6-((1R,2S,3R,4R)-2,3-dihydroxy-4-(hydroxymethyl)cyclopentylamino)-5-(quinolin-2-yl)pyrimidin-4(3H)-one.HCl]
590 nM	O=c1[nH]c(NC2CCC2)nc(N[C@@H]2C[C@H](CO)[C@@H](O)[C@H]2O)c1-c1ccccn1 [Example 21, 2-(Cyclobutylamino)-6-((1R,2S,3R,4R)-2,3-dihydroxy-4-(hydroxymethyl)cyclopentylamino)-5-(pyridin-2-yl)pyrimidin-4(3H)-one.HCl]
1110 nM	O=c1[nH]c(NC2CCC2)nc(N[C@@H]2C[C@H](CO)[C@@H](O)[C@H]2O)c1-c1nccs1 [Example 22, 2-(Cyclobutylamino)-6-((1R,2S,3R,4R)-2,3-dihydroxy-4-(hydroxymethyl)cyclopentylamino)-5-(thiazol-2-yl)pyrimidin-4(3H)-one.HCl]
1790 nM	O=c1[nH]c(NC2CCC2)nc(N[C@@H]2C[C@H](CO)[C@@H](O)[C@H]2O)c1-c1cscn1 [Example 23, 2-(Cyclobutylamino)-6-((1R,2S,3R,4R)-2,3-dihydroxy-4-(hydroxymethyl)cyclopentylamino)-5-(thiazol-4-yl)pyrimidin-4(3H)-one.HCl]

Compound	IC50
O=c1[nH]c(OC2CCC2)nc(N[C@@H]2C[C@H](CO)[C@@H](O)[C@H]2O)c1-c1nc2ccccc2s1 [Example 15, 5-(Benzo[d]thiazol-2-yl)-2-cyclobutoxy-6-((1R,2S,3R,4R)-2,3-dihydroxy-4-(hydroxymethyl)cyclopentylamino)pyrimidin-4(3H)-one.HCl]	1690 nM
